# Measured values as given in article PMC9093066 (Bioorganic & Medicinal Chemistry, 2022).
# Assays:
# SARS-CoV-2 Mac1 [1] = molecular target: T1, SARS-CoV-2 Mac1 (Severe acute respiratory syndrome coronavirus 2, UniProt P0DTD1); format: binding; conditions: for SARS CoV2 Mac1 Alpha (IC50): AlphaScreen ADP-ribose binding, IC50 ± SD of three replicates
# SARS-CoV-2 Mac1 [2] = molecular target: T1, SARS-CoV-2 Mac1; format: binding; conditions: DSF, 300 µM compound, ± SD of three replicates
# Mac1 = conditions: cited from earlier work
# [3] = molecular target: T2, NudF ADP-ribose pyrophosphatase (Escherichia coli, UniProt Q93K97); experiment: NudF-mediated counterscreen of ADPr-Glo assay; format: biochemical; conditions: NudF only with free ADP-ribose
# T2 sequence (Q93K97 1-209): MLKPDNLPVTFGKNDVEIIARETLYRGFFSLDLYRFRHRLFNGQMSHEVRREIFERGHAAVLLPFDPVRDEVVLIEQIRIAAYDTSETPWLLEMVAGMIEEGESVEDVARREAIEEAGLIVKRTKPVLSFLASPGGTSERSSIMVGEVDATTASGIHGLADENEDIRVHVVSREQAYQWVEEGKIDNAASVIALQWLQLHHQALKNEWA
# SARS-CoV-2 Mac1 [4] = molecular target: T1, SARS-CoV-2 Mac1; format: biochemical; conditions: ADPr-Glo dose response, n = 2
# [5] = system: panel of MAR binding proteins from viruses and humans
compound,measurement,setting,value
"CCOC(=O)[C@H](CC(C)C)Nc1ncnc2[nH]ccc12 [Compound 14b, Ethyl (7H-pyrrolo[2,3–d]pyrimidine-4-yl)-L-leucinate]",SARS CoV2 Mac1 Alpha (IC50),SARS-CoV-2 Mac1 [1],completely inactive
"CC(C)C[C@H](Nc1ncnc2[nH]ccc12)C(=O)O [Compound 15b, (7H-pyrrolo[2,3–d]pyrimidine-4-yl)-L-leucinate]",SARS CoV2 Mac1 Alpha (IC50),SARS-CoV-2 Mac1 [1],completely inactive
"O=C(O)C1CCN(c2ncnc3[nH]ccc23)CC1 [Compound 6h, 1-(7H-pyrrolo[2,3–d]pyrimidin-4-yl)piperidine-4-carboxylic acid]",Δ Tm (°C) @300 µM,SARS-CoV-2 Mac1 [2],> 1 °C
same,fold improvement of potency over the initial fragment,SARS-CoV-2 Mac1 [1]; vs fragment 1,~10 fold
Cc1ccc(C(=O)Nc2ccc(S(=O)(=O)O)c3cc(S(=O)(=O)O)cc(S(=O)(=O)O)c23)cc1NC(=O)c1cccc(NC(=O)Nc2cccc(C(=O)Nc3cc(C(=O)Nc4ccc(S(=O)(=O)O)c5cc(S(=O)(=O)O)cc(S(=O)(=O)O)c45)ccc3C)c2)c1 [Suramin],stabilization of the protein in DSF assay,Mac1,concentration dependent stabilization of the protein
"c1ccc2c(CCNc3ncnc4[nH]ccc34)c[nH]c2c1 [Compound 20, N-(2-(1H-indol-3-yl)ethyl)-7H-pyrrolo[2,3–d]pyrimidin-4-amine]",fold less potent than 15c,SARS-CoV-2 Mac1 [1],approximately 7 fold
"Methyl (R)-4-(7H-pyrrolo[2,3–d]pyrimidin-4-yl)piperazine-2-carboxylate ●TFA [Compound 10b]",SARS CoV2 Mac1 Alpha (IC50),SARS-CoV-2 Mac1 [1],Inactive
"O=C(O)C1CCCN(c2ncnc3[nH]ccc23)C1 (centres unmarked) [Compound 6g, 1-(7H-pyrrolo[2,3–d]pyrimidin-4-yl)piperidine-3-carboxylic acid]",activity in NudF-mediated counterscreen,[3],Neither compound demonstrated any activity
"O=C(O)[C@H](Cc1c[nH]c2ccccc12)Nc1ncnc2[nH]ccc12 [Compound 15c, (7H-pyrrolo[2,3–d]pyrimidin-4-yl)-L-tryptophan]",inhibition of Mac1 enzyme (ADP-ribosylhydrolase) activity,SARS-CoV-2 Mac1 [4],dose-dependent inhibition
same,activity in NudF-mediated counterscreen,[3],Neither compound demonstrated any activity
same,selectivity in panel of ADP-ribose binding proteins,[5],remarkably selective for coronavirus macrodomains
"O=C(O)[C@@H]1CCC[C@@H]1Nc1ncnc2[nH]ccc12 [Compound 19, (1R, 2S)-2-((7H-pyrrolo[2,3–d]pyrimidin-4-yl)amino)cyclopentane-1-carboxylic acid]",Δ Tm (°C) @300 µM,SARS-CoV-2 Mac1 [2],> 1 °C
"O=C(O)CNc1ncnc2[nH]ccc12 [Compound 15d, (7H-pyrrolo[2,3–d]pyrimidin-4-yl)glycine]",SARS CoV2 Mac1 Alpha (IC50),SARS-CoV-2 Mac1 [1],did not demonstrate any inhibitory effect
"COC(=O)[C@@H]1CN(c2ncnc3[nH]ccc23)CCN1.O=C(O)C(F)(F)F [Compound 10a, Methyl (S)-4-(7H-pyrrolo[2,3–d]pyrimidin-4-yl)piperazine-2-carboxylate ●TFA]",SARS CoV2 Mac1 Alpha (IC50),SARS-CoV-2 Mac1 [1],Inactive
